Values of other authors as cited in US20190358240A1, “HIV TREATMENT FORMULATION OF ATAZANAVIR AND COBICISTAT” (BRISTOL-MYERS SQUIBB COMPANY, priority 2013, published 2019).

Settings: human, in vivo

Compound: COC(=O)N[C@H](C(=O)N[C@@H](Cc1ccccc1)[C@@H](O)CN(Cc1ccc(-c2ccccn2)cc1)NC(=O)[C@@H](NC(=O)OC)C(C)(C)C)C(C)(C)C [Atazanavir, methyl N-[(1S)-1-{[(2S,3S)-3-hydroxy-4-[(2S)-2-[(methoxycarbonyl)amino]-3,3-dimethyl-N′-{[4-(pyridin-2-yl)phenyl]methyl}butanehydrazido]-1-phenylbutan-2-yl]carbamoyl}-2,2-dimethylpropyl]carbamate]
- Accumulation at steady state: 2-3 fold
- Time to steady state: 4 to 8 days
- Tmax: ~2.5 h
